Assay results as given in US10392391B2 (Vertex Pharmaceuticals Incorporated, priority 2012, dated 2019).
Where two headings read alike, the source gives them in different places.

Biological target: ATR kinase (full-length ATR) (Homo sapiens (Human), UniProt Q13535)
Assay: ATR inhibition assay (radioactive-phosphate incorporation)
Format: biochemical
Summary of the method: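 Radiometric 33P incorporation by 5 nM full-length ATR into 800 μM target peptide with 10 μM [γ-33P]ATP, in 50 mM Tris/HCl pH 7.5, 10 mM MgCl2, 1 mM DTT, 7% DMSO, 25° C. Compound pre-incubated 10 minutes; reaction stopped after 24 hours, captured on phosphocellulose. Ki(app) from non-linear regression of initial rates.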

[1] = Ki(app), 5 nM full-length ATR, 10 μM ATP, 25° C.

ATR kinase (full-length ATR), sequence (Q13535 whole entry): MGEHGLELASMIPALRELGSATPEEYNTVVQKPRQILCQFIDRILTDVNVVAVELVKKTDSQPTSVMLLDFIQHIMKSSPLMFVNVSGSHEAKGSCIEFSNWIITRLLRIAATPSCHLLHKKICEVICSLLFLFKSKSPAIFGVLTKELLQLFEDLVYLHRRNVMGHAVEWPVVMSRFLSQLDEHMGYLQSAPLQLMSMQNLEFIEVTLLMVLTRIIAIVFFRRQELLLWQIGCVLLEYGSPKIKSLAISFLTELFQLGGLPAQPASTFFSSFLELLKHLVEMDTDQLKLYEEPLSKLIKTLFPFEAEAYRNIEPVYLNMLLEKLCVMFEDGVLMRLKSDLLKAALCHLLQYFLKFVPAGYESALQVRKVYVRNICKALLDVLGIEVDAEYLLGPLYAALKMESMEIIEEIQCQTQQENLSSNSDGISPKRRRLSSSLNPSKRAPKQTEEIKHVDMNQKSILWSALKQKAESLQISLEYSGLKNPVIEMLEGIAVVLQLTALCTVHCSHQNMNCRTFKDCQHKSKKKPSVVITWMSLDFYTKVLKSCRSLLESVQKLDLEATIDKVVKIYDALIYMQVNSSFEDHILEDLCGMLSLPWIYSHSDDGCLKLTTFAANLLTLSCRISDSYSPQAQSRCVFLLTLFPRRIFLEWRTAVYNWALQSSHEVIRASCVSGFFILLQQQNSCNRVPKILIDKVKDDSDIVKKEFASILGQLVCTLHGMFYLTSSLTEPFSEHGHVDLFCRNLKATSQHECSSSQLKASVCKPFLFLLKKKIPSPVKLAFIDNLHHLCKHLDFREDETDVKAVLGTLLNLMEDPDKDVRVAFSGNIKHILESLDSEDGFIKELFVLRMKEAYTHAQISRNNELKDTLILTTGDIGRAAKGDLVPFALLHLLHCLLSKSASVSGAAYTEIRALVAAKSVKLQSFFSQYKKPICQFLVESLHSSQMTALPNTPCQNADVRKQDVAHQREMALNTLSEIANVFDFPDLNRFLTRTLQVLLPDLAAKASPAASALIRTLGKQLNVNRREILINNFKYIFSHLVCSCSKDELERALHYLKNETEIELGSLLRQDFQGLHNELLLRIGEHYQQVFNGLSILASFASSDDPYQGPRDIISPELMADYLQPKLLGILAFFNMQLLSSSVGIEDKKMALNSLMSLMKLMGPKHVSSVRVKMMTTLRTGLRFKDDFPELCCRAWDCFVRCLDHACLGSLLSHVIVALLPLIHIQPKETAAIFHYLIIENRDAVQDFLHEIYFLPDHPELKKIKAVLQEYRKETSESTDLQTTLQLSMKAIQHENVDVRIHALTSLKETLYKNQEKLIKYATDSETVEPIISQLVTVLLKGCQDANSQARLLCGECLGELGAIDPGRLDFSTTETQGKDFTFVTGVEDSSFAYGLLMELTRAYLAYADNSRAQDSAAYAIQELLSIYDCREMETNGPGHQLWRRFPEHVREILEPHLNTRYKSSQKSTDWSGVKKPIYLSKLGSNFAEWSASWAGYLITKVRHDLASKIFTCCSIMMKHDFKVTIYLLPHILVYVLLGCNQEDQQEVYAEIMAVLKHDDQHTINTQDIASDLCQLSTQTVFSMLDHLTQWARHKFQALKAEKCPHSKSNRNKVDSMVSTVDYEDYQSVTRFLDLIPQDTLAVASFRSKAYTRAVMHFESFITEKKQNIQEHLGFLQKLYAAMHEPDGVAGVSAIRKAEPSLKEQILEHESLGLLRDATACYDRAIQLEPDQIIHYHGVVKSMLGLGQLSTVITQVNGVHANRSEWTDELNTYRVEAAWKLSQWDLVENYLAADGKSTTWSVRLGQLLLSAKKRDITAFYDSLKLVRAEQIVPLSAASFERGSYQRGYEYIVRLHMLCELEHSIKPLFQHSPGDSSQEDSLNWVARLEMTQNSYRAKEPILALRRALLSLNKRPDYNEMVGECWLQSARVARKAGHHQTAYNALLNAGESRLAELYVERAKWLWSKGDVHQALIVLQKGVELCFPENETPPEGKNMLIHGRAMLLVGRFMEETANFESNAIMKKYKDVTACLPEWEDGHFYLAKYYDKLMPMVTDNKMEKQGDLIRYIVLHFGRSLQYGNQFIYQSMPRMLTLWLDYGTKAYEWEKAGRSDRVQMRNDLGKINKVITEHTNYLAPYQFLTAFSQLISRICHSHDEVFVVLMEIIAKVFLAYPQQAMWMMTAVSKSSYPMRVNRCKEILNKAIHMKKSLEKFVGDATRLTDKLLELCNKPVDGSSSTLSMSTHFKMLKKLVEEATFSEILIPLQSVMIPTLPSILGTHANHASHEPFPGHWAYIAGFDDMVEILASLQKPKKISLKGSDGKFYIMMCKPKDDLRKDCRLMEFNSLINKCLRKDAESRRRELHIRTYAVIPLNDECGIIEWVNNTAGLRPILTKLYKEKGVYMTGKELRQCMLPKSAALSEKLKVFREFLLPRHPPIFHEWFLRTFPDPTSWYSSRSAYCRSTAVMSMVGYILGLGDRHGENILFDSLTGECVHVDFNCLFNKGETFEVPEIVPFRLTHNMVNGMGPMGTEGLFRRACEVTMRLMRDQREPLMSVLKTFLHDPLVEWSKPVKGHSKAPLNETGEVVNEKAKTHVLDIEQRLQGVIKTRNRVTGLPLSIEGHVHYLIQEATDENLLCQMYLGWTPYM

Row | SMILES | Ki [1] [nM] | Ki [nM]
1 | Nc1nn2cc(F)cnc2c1C(=O)Nc1cnccc1N1CCN(CC(F)(F)F)CC1 [I-N-20, 2-amino-6-fluoro-N-(4-(4-(2,2,2-trifluoroethyl)piperazin-1-yl)pyridin-3-yl)pyrazolo[1,5-a]pyrimidine-3-carboxamide] | 10 to 1000 | –
2 | CC1CN(C)CCN1c1ccncc1NC(=O)c1c(N)nn2cc(Cl)cnc12 (stereo not shown) [I-N-72, 2-amino-6-chloro-N-(4-(2,4-dimethylpiperazin-1-yl)pyridin-3-yl)pyrazolo[1,5-a]pyrimidine-3-carboxamide] | 10 to 1000 | –
3 | CC1(N2CCN(c3ccncc3NC(=O)c3c(N)nn4cc(Cl)cnc34)CC2)COC1 [I-N-25, 2-amino-6-chloro-N-(4-(4-(3-methyloxetan-3-yl)piperazin-1-yl)pyridin-3-yl)pyrazolo[1,5-a]pyrimidine-3-carboxamide] | 10 to 1000 | –
4 | CC(C)(C)N1CCN(c2ccncc2NC(=O)c2c(N)nn3cc(Cl)cnc23)CC1 [I-N-34, 2-amino-N-(4-(4-(tert-butyl)piperazin-1-yl)pyridin-3-yl)-6-chloropyrazolo[1,5-a]pyrimidine-3-carboxamide] | – | 1000 to 5000
5 | Nc1nn2cc(F)cnc2c1C(=O)Nc1cnccc1N1CCCC2(COC2)C1 [I-N-253, N-(4-(2-oxa-6-azaspiro[3.5]nonan-6-yl)pyridin-3-yl)-2-amino-6-fluoropyrazolo[1,5-a]pyrimidine-3-carboxamide] | 10 to 1000 | –
6 | Nc1nn2cc(F)cnc2c1C(=O)Nc1cnccc1-c1cncnc1 [I-C-28, 2-amino-6-fluoro-N-(4-(pyrimidin-5-yl)pyridin-3-yl)pyrazolo[1,5-a]pyrimidine-3-carboxamide] | 10 to 1000 | –
7 | CC1(C)CN(c2ccncc2NC(=O)c2c(N)nn3cc(F)cnc23)CCS1(=O)=O [I-N-252, 2-amino-N-(4-(2,2-dimethyl-1,1-dioxidothiomorpholino)pyridin-3-yl)-6-fluoropyrazolo[1,5-a]pyrimidine-3-carboxamide] | 10 to 1000 | –
8 | CN1CCCC(Oc2ccncc2NC(=O)c2c(N)nn3cc(Cl)cnc23)C1 (stereo not shown) [I-O-51, 2-amino-6-chloro-N-(4-((1-methylpiperidin-3-yl)oxy)pyridin-3-yl)pyrazolo[1,5-a]pyrimidine-3-carboxamide] | 10 to 1000 | –
9 | N#CCc1cnc2c(C(=O)Nc3cnccc3OCCN)c(N)nn2c1 [I-O-83, 2-amino-N-(4-(2-aminoethoxy)pyridin-3-yl)-6-(cyanomethyl)pyrazolo[1,5-a]pyrimidine-3-carboxamide] | < 10 | –
10 | Nc1nn2cc(F)cnc2c1C(=O)Nc1cnccc1N1CCC(N2CCCC2=O)CC1 [I-N-230, 2-amino-6-fluoro-N-(4-(4-(2-oxopyrrolidin-1-yl)piperidin-1-yl)pyridin-3-yl)pyrazolo[1,5-a]pyrimidine-3-carboxamide] | 10 to 1000 | –
11 | Nc1nn2cc(F)cnc2c1C(=O)Nc1cnccc1-c1cccnc1O [I-C-32, 2-amino-6-fluoro-N-(2-hydroxy-[3,4′-bipyridin]-3′-yl)pyrazolo[1,5-a]pyrimidine-3-carboxamide] | 10 to 1000 | –
12 | Nc1nn2cc(Cl)cnc2c1C(=O)Nc1cnccc1N1CCN(CC(F)(F)F)CC1 [I-N-67, 2-amino-6-chloro-N-(4-(4-(2,2,2-trifluoroethyl)piperazin-1-yl)pyridin-3-yl)pyrazolo[1,5-a]pyrimidine-3-carboxamide] | 10 to 1000 | –
13 | Nc1nn2cc(F)cnc2c1C(=O)Nc1cnccc1O[C@H]1CCCN(C2COC2)C1 [I-O-9, (S)-2-amino-6-fluoro-N-(4-((1-(oxetan-3-yl)piperidin-3-yl)oxy)pyridin-3-yl)pyrazolo[1,5-a]pyrimidine-3-carboxamide] | 10 to 1000 | –
14 | Nc1nn2cc(F)cnc2c1C(=O)Nc1cnccc1C1CC1 [I-C-42, 2-amino-N-(4-cyclopropylpyridin-3-yl)-6-fluoropyrazolo[1,5-a]pyrimidine-3-carboxamide] | 10 to 1000 | –

Now from value to compound:

Row | Ki [1] [nM] | Ki [nM] | SMILES
15 | 10 to 1000 | – | CN(C)C(=O)C1CCN(c2c(F)cncc2NC(=O)c2c(N)nn3cc(F)cnc23)CC1 [I-G-29, 2-amino-N-(4-(4-(dimethylcarbamoyl)piperidin-1-yl)-5-fluoropyridin-3-yl)-6-fluoropyrazolo[1,5-a]pyrimidine-3-carboxamide]
16 | 10 to 1000 | – | Nc1nn2cc(F)cnc2c1C(=O)Nc1cncc(F)c1N1CCC(S(=O)(=O)N2CCC2)CC1 [I-N-169, 2-amino-N-(4-(4-(azetidin-1-ylsulfonyl)piperidin-1-yl)-5-fluoropyridin-3-yl)-6-fluoropyrazolo[1,5-a]pyrimidine-3-carboxamide]
17 | 10 to 1000 | – | Nc1nn2cc(F)cnc2c1C(=O)Nc1cncc(F)c1N1CCC(C(=O)N2CCC2)CC1 [I-G-8, 2-amino-N-(4-(4-(azetidine-1-carbonyl)piperidin-1-yl)-5-fluoropyridin-3-yl)-6-fluoropyrazolo[1,5-a]pyrimidine-3-carboxamide]
18 | 10 to 1000 | – | Nc1nn2cc(F)cnc2c1C(=O)Nc1cncc(F)c1N1CCC(C(=O)N2CCC(N3CCCCC3)CC2)CC1 [I-G-60, N-(4-(4-([1,4′-bipiperidine]-1′-carbonyl)piperidin-1-yl)-5-fluoropyridin-3-yl)-2-amino-6-fluoropyrazolo[1,5-a]pyrimidine-3-carboxamide]
19 | 10 to 1000 | – | CN1CCN(CC2CCN(c3c(F)cncc3NC(=O)c3c(N)nn4cc(C5(C#N)CC5)cnc34)CC2)CC1 [I-N-192, 2-amino-6-(1-cyanocyclopropyl)-N-(5-fluoro-4-(4-((4-methylpiperazin-1-yl)methyl)piperidin-1-yl)pyridin-3-yl)pyrazolo[1,5-a]pyrimidine-3-carboxamide]
20 | 10 to 1000 | – | Nc1nn2cc(F)cnc2c1C(=O)Nc1cncc(F)c1N1CCC(c2nccs2)CC1 [I-N-184, 2-amino-6-fluoro-N-(5-fluoro-4-(4-(thiazol-2-yl)piperidin-1-yl)pyridin-3-yl)pyrazolo[1,5-a]pyrimidine-3-carboxamide]
21 | 10 to 1000 | – | CO[C@H]1CCN(C(=O)C2CCN(c3c(F)cncc3NC(=O)c3c(N)nn4cc(F)cnc34)CC2)C1 [I-G-99, (S)-2-amino-6-fluoro-N-(5-fluoro-4-(4-(3-methoxypyrrolidine-1-carbonyl)piperidin-1-yl)pyridin-3-yl)pyrazolo[1,5-a]pyrimidine-3-carboxamide]
22 | – | 1000 to 5000 | CN1CCN(C(=O)C2CCCN(c3c(F)cncc3NC(=O)c3c(N)nn4cc(F)cnc34)C2)CC1 (stereo not shown) [I-N-289, 2-amino-6-fluoro-N-(5-fluoro-4-(3-(4-methylpiperazine-1-carbonyl)piperidin-1-yl)pyridin-3-yl)pyrazolo[1,5-a]pyrimidine-3-carboxamide]
23 | – | 1000 to 5000 | Nc1nn2cc(F)cnc2c1C(=O)Nc1cncc(F)c1N1CCC(C(=O)N2CCN3CCC2C3)CC1 (stereo not shown) [I-G-46, N-(4-(4-(1,4-diazabicyclo[3.2.1]octane-4-carbonyl)piperidin-1-yl)-5-fluoropyridin-3-yl)-2-amino-6-fluoropyrazolo[1,5-a]pyrimidine-3-carboxamide]
24 | 10 to 1000 | – | CN1CCOCC1C(=O)N1CCN(c2c(F)cncc2NC(=O)c2c(N)nn3cc(F)cnc23)CC1 (stereo not shown) [I-N-227, 2-amino-6-fluoro-N-(5-fluoro-4-(4-(4-methylmorpholine-3-carbonyl)piperazin-1-yl)pyridin-3-yl)pyrazolo[1,5-a]pyrimidine-3-carboxamide]
25 | – | 1000 to 5000 | CN1CCN(c2c(F)cncc2NC(=O)c2c(N)nn3cc(C(C)(C)C#N)cnc23)CC1 [I-N-138, 2-amino-6-(2-cyanopropan-2-yl)-N-(5-fluoro-4-(4-methylpiperazin-1-yl)pyridin-3-yl)pyrazolo[1,5-a]pyrimidine-3-carboxamide]
